The values that follow come from patent publication US20100143381A1, “LYSOPHOSPHATIDIC ACID RECEPTOR TARGETING FOR LUNG DISEASE” (priority 2007, published 2010).

For experiment [1], the system named is primary mouse lung fibroblasts. Kind of experiment: PDGF-induced fibroblast chemotaxis (specificity control). Format: cell-based. How it is done:
(§1) Lungs from unchallenged C57BL/6, LPA1^−/− or littermate wild type mice were digested for 45 minutes at 37° C. in DMEM with 0.14 U/ml Liberase Blenzyme 3 (Roche), and 60 μg/ml DNAse 1 (Sigma), passed through a 70 μm filter, centrifuged at 540×g at 4° C. and plated in tissue culture flasks in DMEM with 15% (vol/vol) fetal bovine serum (FBS, Sigma). Cells were passaged when subconfluent following harvest with trypsin-EDTA (Cellgro®). To ensure that cultures contained almost purely fibroblasts, cells were used for experiments at passage 3 or higher.
(§2) After being serum-starved in DMEM without FBS overnight, subconfluent primary lung fibroblasts were harvested with non-enzymatic Cell Dissociation Solution (Sigma) to avoid possible proteolysis of surface chemoattractant receptors by trypsin. Harvested cells, at 5.0×10^5 cells/ml in 50 μl of DMEM, were placed in the top of a 48-well modified Boyden microchemotaxis chamber (NeuroProbe). Duplicate 30 μl aliquots of either: i) 18:1 LPA (Avanti Polar Lipids) or PDGF-BB (R&D Systems) in DMEM with 0.1% fatty acid-free bovine serum albumin (Sigma); or ii) BAL, or BAL fractions, diluted 1:4 in DMEM, were placed in the bottom wells of the chamber and separated from the cells by a 8-μm-pore, polyvinylpyrrolidone-free polycarbonate filter (Osmonics) that had been coated with fibronectin (Sigma). The apparatus was incubated at 37° C. and 5% CO2 for 3 hours, and cells migrating across the filter and adhering to the bottom side of the filter were stained with a commercially modified Wright's stain (Hema 3 stain set, Fisher Diagnostics) and counted, after cells remaining on the top side of the filter had been scraped off. Data from these experiments is presented as chemotactic indices, i.e. the number of cells migrating in response to BAL divided by the number of cells migrating to media controls.

Experiment [2] has as its system primary mouse lung fibroblasts. Description: Fibroblast chemotaxis induced by BAL from mice on Day 5 post-bleomycin (modified Boyden chamber). Format: cell-based. How it is done:
Bronchoalveolar lavage (BAL) samples were obtained by lung lavage using two 0.5 ml aliquots of PBS. These samples were then provided for analysis of: i) chemoattractant activity, ii) LPA; iii) total protein; and iv) D-dimer concentrations. These BAL samples were centrifuged at 3000×g for 20 min at 4° C., and the supernatants transferred to siliconized low-binding eppendorf tubes (PGC Scientifics) for subsequent analysis.
as §1
as §2, with “Data from these experiments is presented as chemotactic indices, i.e. the number of cells migrating in response to BAL divided by the number of cells migrating to media controls.” left out

Experiment [3] concerns primary mouse lung fibroblasts. Description: LPA-induced fibroblast chemotaxis. Particulars: for effect of albumin on LPA-induced fibroblast chemotaxis: 0.1% fatty acid-free BSA, C57Bl/6 lung fibroblasts, FIG. 9b. Format: cell-based. How it is done: as §1, §2
Experiment [4] deals with LPA-activated chloride channel. The note with it: elevated levels; human lung fibroblasts; literature (Yin et al. 2005); cited from earlier work.
Experiment [5] concerns LPA1, LPA3, LPA2. Particulars: literature (Ohta et al. 2003; Heise et al. 2001); cited from earlier work.
The test system of experiment [6] is human fetal lung fibroblasts (HFL1 cells). Description: Fibroblast chemotaxis induced by BAL samples from human IPF patients. The experiment is classed as cell-based. The note with it: 1 μM Ki16425; FIG. 8d. As for the experimental part:
After being serum-starved in DMEM without FBS overnight, subconfluent primary lung fibroblasts were harvested with non-enzymatic Cell Dissociation Solution (Sigma) to avoid possible proteolysis of surface chemoattractant receptors by trypsin. Harvested cells, at 5.0×10^5 cells/ml in 50 μl of DMEM, were placed in the top of a 48-well modified Boyden microchemotaxis chamber (NeuroProbe). […] The apparatus was incubated at 37° C. and 5% CO2 for 3 hours, and cells migrating across the filter and adhering to the bottom side of the filter were stained with a commercially modified Wright's stain (Hema 3 stain set, Fisher Diagnostics) and counted, after cells remaining on the top side of the filter had been scraped off. […]
BAL samples were recovered from IPF patients and normal controls following instillation of sterile 0.9% saline by flexible fiberoptic bronchoscopy, performed both at the Instituto Nacional de Enfermedades Respiratorias and the Massachusetts General Hospital (MGH), as previously described. […] Cells growing at passage 3 or higher were analyzed as primary human BAL fibroblasts.

For experiment [7], the system named is sphingosine 1-phosphate receptors. The note with it: literature (Ohta et al. 2003); cited from earlier work.

“Also recorded” adds a separate entry of the source.

Regarding pertussis toxin [PTX], the “effect of PTX pretreatment on PDGF-induced fibroblast chemotaxis” value in experiment [1] (PTX-pretreatment of fibroblasts, FIG. 1b, 1i) is recorded as “not inhibited”. Moreover, the “effect of PTX pretreatment on BAL-induced fibroblast chemotaxis” value in experiment [2] (PTX-pretreatment of fibroblasts, D5 BAL, FIG. 1b) is listed as “inhibited chemotaxis; also recorded: completely inhibited”. In addition, in experiment [3] (PTX-pretreatment, LPA 10^−9-10^−7 M, FIG. 1i), the “effect of PTX pretreatment on LPA-induced fibroblast chemotaxis” value was “inhibited chemotaxis; also recorded: reduced”.
With lysophosphatidic acid [LPA], in experiment [3] (LPA bound to albumin, FIG. 1h), the “fibroblast chemotactic activity of LPA” value was “chemotactic; also recorded: potent fibroblast chemoattractant”.
For the molecule dioctyl-glycerol pyrophosphate, the “effect on activation of LPA-activated chloride channel” value in experiment [4] was “blocked”.
Turning to “fatty acid-free BSA: fatty acid-free bovine serum albumin (Sigma)”, the figures for the “effect of albumin on LPA-induced fibroblast chemotaxis” value in experiment [3] and in experiment [3] (listed as methanol extracted fatty acid-free albumin) were “potentiated” and “significantly potentiated”, respectively.
Consider `CCCCCCCC/C=C\CCCCCCCC(=O)N[C@@H](COP(=O)(O)O)Cc1ccc(OCc2ccccc2)cc1` [VPC12249], for which, in experiment [1] (100 μM VPC12249, PDGF 10^−9 M, FIG. 10), the “effect on PDGF-induced fibroblast chemotaxis” value is “did not affect; also recorded: similar; also recorded: not affected”. Moreover, the “effect on fibroblast chemotaxis induced by D5 post-bleomycin BAL” value in experiment [2] (100 μM VPC12249, C57BL/6 fibroblasts, FIG. 10) is recorded as “reduced chemotaxis; also recorded: significantly inhibited”. Further, the “receptor subtype rank order of inhibition of LPA-induced responses” value in experiment [5] is “LPA1≧LPA3>>LPA2”.
As for `Cc1noc(-c2ccc(CSCCC(=O)O)cc2)c1NC(=O)OC(C)c1ccccc1Cl` (stereo not drawn) [Ki16425], the “effect on PDGF-induced fibroblast chemotaxis” value in experiment [1] (1 μM Ki16425, 10^−8 or 10^−7 M PDGF, FIG. 5b) is on record as “not affected; also recorded: similar; also recorded: did not affect”. Further, the “effect on fibroblast chemotaxis induced by D5 post-bleomycin BAL” value in experiment [2] (1 μM Ki16425, C57BL fibroblasts, FIG. 5b) is on record as “significantly inhibited”. For the same molecule, the “effect on chemotaxis of HFL1 cells to BAL samples from IPF patients” value in experiment [6] is listed as “reduced chemotaxis; also recorded: significantly inhibited”. The “effects on cellular responses mediated by sphingosine 1-phosphate receptors” value in experiment [7] is listed as “without appreciable effects”. Further, the “receptor subtype rank order of inhibition of LPA-induced responses” value in experiment [5] is recorded as “LPA1≧LPA3>>LPA2”.
